Key:
[1] = test system: PHF-Tau; details: 100 μM, 3 hours
Procedure: In Vitro: 2×10^5 SY5Y or BE2M17 cells were plated to each well in a Falcon 6-well plate, either over coated or uncoated surfaces, and were allowed to attached overnight at 5% CO2/37° C. in complete growth medium (as described above). […] Cells were cultured over Falcon 6-well plates with surfaces coated either with 0.1% gelatin (Sigma, St Louis, Mo., USA), matrigel (cat #354234, BD, NSW, Australia) or 0.5 μg/ml fibronectin (Sigma, St Louis, Mo., USA).
Lysates preparation and Immunoblotting: Cells were washed twice in cold PBS and were lysed in 150 μl of cold RIPA buffer (containing 10% glycerol, 20 mM Tris, 137 mM NaCl, 0.1% SDS, 0.05% IGEPAL, 1% Triton X-100, 2 mM EDTA, 10% NaV, 2% NaF and 4× protease inhibitor), similarly, brain tissues were homogenised in dry ice using mortar and pestle, and lysed in 150 μl RIPA buffer. Samples were incubated on ice for 30 minutes, followed by centrifugation at 13000 rpm/ 10 minutes/ 4° C. Supernantant was collected and protein estimation was calculated for each sample by using BCA reagent (Sigma). Equal amounts of protein were loaded into each lane of a 10% SDS-polyacrylamide gel. The proteins were transferred onto PVDF (Millipore) membranes and were blocked with 5% skim milk blotto for 2 hours. After blocking the membrane, primary antibodies: either anti-human PHF-Tau (AT100 at 1:200, AT180 at 1:1000, and AT270 at 1:2500) or anti-human Tau (HT-7 at 1:1000) were incubated overnight at 4° C. in 5% skim milk blotto. Prior to secondary antibody incubation, membranes were rinsed 3× followed by 3×5 minutes washed in Tris-Buffered Saline with 0.01% Tween at room temperature. Followed by 1 hour incubation of secondary antibody polyclonal goat anti-mouse (Dako, Denmark) coupled to horse radish peroxidase (HRP) at 1:10000 dilutions in 5% skim milk blotto/room temperature. Membranes were washed as described above and were detected by using Amersham ECL western blotting detection reagent (Amersham Bioscience, Buckinghamshire, UK). Membranes were stripped using 2% SDS/β-Mercaptoethanol stripping buffer and reprobed for tubulin (Promega) to confirm protein loading.

[2] = target: T1, human PP2A A-C heterodimer (Homo sapiens, UniProt P67775); format: biochemical
T1 construct: purified PP2A A-C dimer purified from human red blood cells; purchased Upstate 14-111 (lot #28002); host or cells: human red blood cells (native purification)
T1 sequence (P67775 whole entry): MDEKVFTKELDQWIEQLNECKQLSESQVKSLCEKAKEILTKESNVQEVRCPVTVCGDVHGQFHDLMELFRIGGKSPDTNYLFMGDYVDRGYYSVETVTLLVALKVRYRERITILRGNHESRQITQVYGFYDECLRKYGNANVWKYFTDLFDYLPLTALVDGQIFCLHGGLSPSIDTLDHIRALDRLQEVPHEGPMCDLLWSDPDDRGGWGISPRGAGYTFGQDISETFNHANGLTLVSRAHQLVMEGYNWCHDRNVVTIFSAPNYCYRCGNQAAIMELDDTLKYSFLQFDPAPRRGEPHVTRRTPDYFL
T1 sequence (P30153 2-589 partner limits assumed): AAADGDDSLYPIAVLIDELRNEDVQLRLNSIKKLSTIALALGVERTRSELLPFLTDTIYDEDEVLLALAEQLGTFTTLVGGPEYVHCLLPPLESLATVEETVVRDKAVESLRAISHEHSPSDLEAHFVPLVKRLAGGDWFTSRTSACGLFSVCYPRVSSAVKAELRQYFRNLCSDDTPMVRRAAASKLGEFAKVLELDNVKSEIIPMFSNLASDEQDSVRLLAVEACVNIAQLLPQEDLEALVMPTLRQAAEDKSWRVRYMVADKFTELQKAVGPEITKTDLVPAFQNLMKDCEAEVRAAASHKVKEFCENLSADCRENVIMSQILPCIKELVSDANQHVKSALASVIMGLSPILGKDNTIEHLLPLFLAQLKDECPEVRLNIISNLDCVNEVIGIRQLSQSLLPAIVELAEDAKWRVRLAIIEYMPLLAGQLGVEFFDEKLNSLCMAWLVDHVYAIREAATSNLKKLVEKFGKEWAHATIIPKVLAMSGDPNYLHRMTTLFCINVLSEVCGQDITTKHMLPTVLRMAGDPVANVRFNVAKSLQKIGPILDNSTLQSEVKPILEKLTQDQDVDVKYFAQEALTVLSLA
Procedure: In initial assays a chemical substrate of phosphatase enzymatic action, para-nitrophennylphosphate (pNPP) was used, which following hydrolysis of the phosphate moiety generates para-nitrophenol, an intensely yellow chromogen which is soluble under alkaline conditions. […] Absorbance of each sample was measured in duplicate at 405 nm with 590 nm as a reference. PP2A activity was calculated using the following equation: activity=(sample vol in liters)×A405/1.78×104M^−1 cm^−1 (extinction coefficient)×0.25 cm×15 minutes×0.05 U enzyme Data is presented as mean relative phosphatase activity ±SEM from at least three independent experiments.
Para-nitrophennylphosphate (PNPP) is a chemical substrate of phosphatase enzymes, which following hydrolysis of the phosphate moiety generates para-nitrophenol, an intensely yellow chromogen, soluble under alkaline conditions. In assays measuring relative phosphatase activity, 0.05 U of purified PP2A was mixed with 5 μl of 40 mM NiCl2 and 5 μl of BSA solution (5 mg/ml) in a microcentrifuge tube. Various treatments were added as indicated, and the volume adjusted to 80 μl with pNPP assay buffer. Samples were pre-incubated at 37° C. for 15 min. pNPP substrate was freshly prepared before each assay by dissolving 1.5 mg/ml pNPP in 50 mM Tris-HCl, pH 7.0. To start the phosphatase reaction, 120 μl of pNPP substrate was added, and samples incubated for a further 15 min at 37° C. Absorbance of each sample was measured in duplicate at 405 nm with 590 nm as a reference. PP2A activity was calculated using the following equation: activity=(Sample volume in liters)×A405/1.78×10^4M^−1cm^−1 (Extinction coefficient)×0.25 cm×15 min×0.05 U enzyme.

[3] = test system: PC3 prostate carcinoma cells; assay: Intracellular redox state assay (DCFDA, flow cytometry); details: 1 h, sodium selenate 500 μM, NAC 1 mM
Procedure: 1×10^6 PC3 prostate carcinoma cells were plated in 60 mm dishes, allowed to attach for 8 h, and serum starved overnight. Cells were incubated with DCFDA 5 μM for 15 min prior to treatment.
The proportion of fluorescent cells was then determined by flow cytometry.
Intracellular redox state was determined using 2′,7′-dichlorodihydrofluorescein diacetate (DCFDA). […] Cells were equilibrated with 5 μM of DCFDA for 15 min prior to various treatments. Adherent cells were then harvested, washed twice with PBS and the proportion of fluorescent cells determined immediately by flow cytometry.

[4] = target: T2, PP2A (Homo sapiens, UniProt P67775); assay: PP2A immunoprecipitation from treated PC3 cells and phosphatase assay; format: cell-based; details: PC3 cells treated 1 hour; sodium selenate 500 μM, endothall A 100 μM
T2 construct: the phosphatase activity of the general pool of intracellular PP2A; endogenous in cells; host or cells: PC3 prostate carcinoma cells
T2 sequence (P67775 whole entry): as the sequence (P67775 whole entry) above
T2 sequence (P30153 2-589 partner limits assumed): as the sequence (P30153 2-589 partner limits assumed) above
Procedure: Free phosphate was removed by passing cell lysates through desalting columns, and measured phosphatase activity using a phosphor-serine peptide and malachite green.
1×10^6 PC3 cells were plated in 60 mm plates and allowed attach for 8 h, then serum starved over night. Following various treatments as indicated, the media was aspirated and cells washed once with TBS. Cells were lysed in 0.3 ml of lysis buffer (20 mM Tris-HCl, pH 7.0, 1% Igepal-CA, 2 mM EDTA, 2 mM EGTA, 1× Complete Protease Inhibitor Cocktail) and phosphates removed by passing the lysate through a 2 ml Zeba Desalt Spin Column (Pierce #89890). Protein concentration of the desalted lysate was determined by the BCA assay as previously described. 100-150 μg of total protein was immunoprecipitated with 4 μg of anti-PP2A monoclonal antibody and 30 μl of Protein A-sepharose slurry at 4° C. for 2 h. Samples were then pelleted at 14,000 rpm for 1 min, washed three times in excess TBS and once with pNPP assay buffer. After the final spin all of the supernatant was carefully removed and 500 μM of phosphor-threonine peptide in a final volume of 80 μl added to the beads. Samples were incubated at 30° C. for 10 min with agitation, and the reaction terminated by the addition of malachite green solution. Absorbance was read at 590 nm for each sample in duplicate.

[5] = test system: GSK-3β; assay: GSK-3β Ser9 phosphorylation by immunoblot in PC3 cells; format: cell-based, human
Description: The metabolic effects of insulin on glycogen synthesis are mediated by glycogen synthase kinase-3 (GSK-3), a direct downstream substrate of Akt. GSK-3 is a ubiquitously expressed serine/threonine kinase that phosphorylates and inactivates glycogen synthase. In response to activation of the insulin receptor, Akt phosphorylates and inactivates the repressor GSK-3, thereby stimulating glycogen synthesis [Cross et al., 1995]. […] Resolved whole cell lysates were subjected to immunoblot analysis with an antibody that specifically recognizes GSK-3β only when phosphorylated at Ser9, a site critical for its kinase activity, and comparison made with the cytoskeletal protein β-tubulin as a loading control.

[6] = test system: p70S6K; format: cell-based, human; details: PC3 cells; LY294002 50 μM 1 hour, sodium selenate 500 μM 1 hour, okadaic acid 500 nM
Procedure: 5×10^5 PC3 prostate carcinoma cells were plated per well of a 6-well plate, allowed to attach for 8 hours, then serum starved overnight. […] Equal amounts of whole cell lysates (75 μg) were resolved by SDS-PAGE, and the level of p70S6K phosphorylation determined by immunoblot analysis with an antibody that specifically recognizes the p70S6K protein when phosphorylated on Thr389. Comparison is made with the protein loading control β tubulin.

[7] = BE2M17 cells on fibronectin, plastic (uncoated) and matrigel

Compound: O=[Se](=O)(O)O [sodium selenate]
- PHF-Tau signal, clone AT100 (68 kDa) ([1]; BE2M17 cells on fibronectin and matrigel): PHF-Tau signal appeared to be reduced
- Tau expression, clone HT-7 (68, 64, 57 kDa) ([1]; BE2M17 cells on fibronectin): appeared to reduce Tau expression
- PHF-Tau signal, clone AT180 (71 and 67 kDa) [1, 7]: weaker PHF-Tau signal
- PHF-Tau signal, clone AT270 (66 and 63 kDa) [1, 7]: weaker PHF-Tau signal
- PHF-Tau signal, clone AT270, cells on matrigel ([1]; BE2M17 cells on matrigel): only a slight difference between selenate treated and non-treated cells
- anti-Tau signal, clone HT-7 (60 kDa) ([1]; SY5Y cells on fibronectin): weaker signal for anti-Tau
- PHF-Tau signal, clone AT270 (70 kDa) ([1]; SY5Y cells on gelatin and fibronectin): weaker PHF-Tau signal
- PP2A phosphatase activity, pNPP as substrate ([2]; 5 mM of each selenium compound): clear boost in phosphatase activity
- PP2A phosphatase activity (pNPP) ([2]; 0.05 U PP2A dimer, 30 min at 37° C., sodium selenate 5 mM, okadaic acid 500 nM): nearly tripled
- basal proportion of fluorescent cells (ROS) [3]: had no effect on the basal proportion of fluorescent cells
- phosphatase activity of immunoprecipitated PP2A (general intracellular pool) [4]: had no effect
- GSK-3β phosphorylation at Ser9, time course ([5]; 500 μM, 0 to 6 h): marked reduction in phosphorylation, which was maximal at 1 h and 3 h, and returned towards basal levels at the 6 h timepoint
- reduction of GSK-3β phosphorylation levels ([5]; densitometry, sodium selenate 500 μM 3 h, LY294002 50 μM 1 h): over 20%
- p70S6K phosphorylation on Thr389 [6]: unaffected
